Results from ChEMBL document CHEMBL5241075, “Advancement of chimeric hybrid drugs to cure malaria infection: An overview with special emphasis on endoperoxide pharmacophores” (Eur J Med Chem, 2021).
≈ marks a conversion by molar mass, not a printed value.

Columns and labels:
Plasmodium falciparum [1] = experiment: Antimalarial activity against chloroquine resistant Plasmodium falciparum FcB1 Colombia; type: functional, organism-based
Plasmodium falciparum [2] = experiment: Antimalarial activity against chloroquine resistant Plasmodium falciparum FcR3 Gambia; type: functional, organism-based
Plasmodium falciparum [3] = experiment: Antimalarial activity against chloroquine resistant Plasmodium falciparum PaloAlto; type: functional, organism-based
Plasmodium falciparum [4] = experiment: Antimalarial activity against chloroquine resistant Plasmodium falciparum W2; type: functional, organism-based
Plasmodium falciparum [5] = experiment: Antimalarial activity against chloroquine resistant Plasmodium falciparum FcM29 Cameron; type: functional, organism-based
Plasmodium falciparum [6] = experiment: Antimalarial activity against chloroquine sensitive Plasmodium falciparum D6; type: functional, organism-based
Plasmodium falciparum [7] = experiment: Antimalarial activity against chloroquine sensitive Plasmodium falciparum F32; type: functional, organism-based
Plasmodium vinckei [8] = experiment: Antimalarial activity against chloroquine resistant Plasmodium vinckei infected in po dosed swiss mouse assessed as reduction in parasitemia; type: functional
[9] = tested on: Plasmodium vinckei petteri; experiment: Antimalarial activity against chloroquine sensitive Plasmodium vinckei petteri infected in po dosed swiss mouse assessed as reduction in parasitemia; type: functional
Plasmodium falciparum [10] = experiment: Antimalarial activity against erythrocytic stage chloroquine sensitive Plasmodium falciparum W2 infected in mouse assessed as reduction in parasitemia at 32 mg/kg/day, po qd measured after 4 days by Giemsa staining based analysis relative to control; type: functional; parameters: scale not given: the % may be the effect or the level left; details: time 4 day
Plasmodium falciparum [11] = experiment: Antimalarial activity against erythrocytic stage chloroquine sensitive Plasmodium falciparum 3D7 infected in mouse assessed as reduction in parasitemia at 63 mg/kg/day, po qd measured after 4 days by Giemsa staining based analysis relative to control; type: functional; parameters: scale not given: the % may be the effect or the level left; details: time 4 day
Plasmodium falciparum [12] = experiment: Antimalarial activity against erythrocytic stage chloroquine sensitive Plasmodium falciparum W2 infected in mouse assessed as reduction in parasitemia at 63 mg/kg/day, po qd measured after 4 days by Giemsa staining based analysis; type: functional; parameters: scale not given: the % may be the effect or the level left; details: time 4 day
Plasmodium falciparum [13] = experiment: Antiplasmodial activity against chloroquine resistant Plasmodium falciparum by HRP2 ELISA analysis; type: functional, organism-based
Plasmodium falciparum [14] = experiment: Antiplasmodial activity against Plasmodium falciparum 3D7; type: functional, organism-based
Plasmodium falciparum [15] = experiment: Antiplasmodial activity against Plasmodium falciparum K1; type: functional, organism-based; details: Plasmodium falciparum, K1; read-out: EC50
Plasmodium falciparum [16] = experiment: Antiplasmodial activity against Plasmodium falciparum DD2; type: functional, organism-based
Plasmodium berghei [17] = experiment: Antiplasmodial activity against Plasmodium berghei infected in mouse assessed as reduction in parasitemia at 65 mg/kg, sc measured after 4 days post treatment relative to control; type: functional; parameters: scale not given: the % may be the effect or the level left; details: time 4 day
Plasmodium berghei [18] = experiment: Antiplasmodial activity against Plasmodium berghei infected in mouse assessed as reduction in parasitemia at 35 microg/kg, sc measured after 4 days post treatment relative to control; type: functional; parameters: scale not given: the % may be the effect or the level left; details: dose 35 µg/kg, time 4 day
Plasmodium berghei [19] = experiment: Antiplasmodial activity against Plasmodium berghei infected in mouse assessed as reduction in parasitemia by measuring survival rate at 35 microg/kg, sc measured after 41 days of post infection relative to control; type: functional; details: 984 h, dose 35 µg/kg, time 41 day
Plasmodium falciparum [20] = experiment: Potency index, ratio of artesunate IC50 to test compound IC50 for antiplasmodial activity against Plasmodium falciparum gametocytes by [3H]hypoxanthine incorporation assay; type: functional
Plasmodium falciparum [21] = experiment: Potency index, ratio of mefloquine IC50 to test compound IC50 for antiplasmodial activity against Plasmodium falciparum gametocytes by [3H]hypoxanthine incorporation assay; type: functional
Plasmodium falciparum [22] = experiment: Antiplasmodial activity against Plasmodium falciparum gametocytes assessed as inhibition of gametocyte activation by [3H]hypoxanthine incorporation assay; type: functional, organism-based
Plasmodium falciparum [23] = experiment: Antiplasmodial activity against Plasmodium falciparum gametocytes by [3H]hypoxanthine incorporation assay; type: functional, organism-based
[24] = tested on: Human immunodeficiency virus; experiment: Antiviral activity against HIV; type: functional, organism-based; details: Human immunodeficiency virus 1
Plasmodium berghei [25] = experiment: Antiplasmodial activity against Plasmodium berghei infected in mouse assessed as reduction in parasitemia at 6.8 mg/kg in presence of mefloquine relative to control; type: functional; parameters: scale not given: the % may be the effect or the level left
Plasmodium berghei [26] = experiment: Antiplasmodial activity against Plasmodium berghei infected in mouse assessed as reduction in parasitemia at 13 mg/kg in presence of mefloquine relative to control; type: functional; parameters: scale not given: the % may be the effect or the level left
Plasmodium falciparum [27] = experiment: Antiplasmodial activity against Plasmodium falciparum W2; type: functional, organism-based
[28] = Inhibition of Plasmodium falciparum falcipain-2
HeLa = experiment: Antiproliferative activity against human HeLa cells assessed as cell growth inhibition; type: functional, cell-based; details: Homo sapiens, HeLa
Hemozoin = experiment: Inhibition of Beta-hematin in Plasmodium falciparum
[29] = tested on: Plasmodium yoelii nigeriensis; experiment: Antiplasmodial activity against Plasmodium yoelii nigeriensis infected in sc dosed mouse assessed as reduction in parasitemia; type: functional; details: for ED50 / ED90: Plasmodium yoelii
Plasmodium falciparum [30] = experiment: Antimalarial activity against erythrocytic stage chloroquine sensitive Plasmodium falciparum 3D7 infected in mouse assessed as reduction in parasitemia at 15 mg/kg/day, po qd measured after 4 days by Giemsa staining based analysis relative to control; type: functional; parameters: scale not given: the % may be the effect or the level left; details: time 4 day
Plasmodium falciparum [31] = experiment: Antimalarial activity against erythrocytic stage chloroquine sensitive Plasmodium falciparum 3D7 infected in mouse assessed as reduction in parasitemia at 43 mg/kg/day, po qd measured after 4 days by Giemsa staining based analysis relative to control; type: functional; parameters: scale not given: the % may be the effect or the level left; details: time 4 day
Plasmodium falciparum [32] = experiment: Antimalarial activity against erythrocytic stage chloroquine sensitive Plasmodium falciparum W2 infected in mouse assessed as reduction in parasitemia at 43 mg/kg/day, po qd measured after 4 days by Giemsa staining based analysis relative to control; type: functional; parameters: scale not given: the % may be the effect or the level left; details: time 4 day
Plasmodium falciparum [33] = experiment: Antiplasmodial activity against Plasmodium falciparum TM91C235; type: functional, organism-based
Plasmodium falciparum [34] = experiment: Antiplasmodial activity against Plasmodium falciparum NF54; type: functional, organism-based
Plasmodium falciparum [35] = experiment: Antimalarial activity against erythrocytic stage chloroquine sensitive Plasmodium falciparum 3D7 infected in mouse assessed as reduction in parasitemia at 4 mg/kg/day, po qd measured after 4 days by Giemsa staining based analysis relative to control; type: functional; parameters: scale not given: the % may be the effect or the level left; details: time 4 day
Plasmodium falciparum [36] = experiment: Antimalarial activity against erythrocytic stage chloroquine sensitive Plasmodium falciparum W2 infected in mouse assessed as reduction in parasitemia at 4 mg/kg/day, po qd measured after 4 days by Giemsa staining based analysis relative to control; type: functional; parameters: scale not given: the % may be the effect or the level left; details: time 4 day
Plasmodium falciparum [37] = experiment: Antimalarial activity against erythrocytic stage chloroquine sensitive Plasmodium falciparum W2 infected in mouse assessed as reduction in parasitemia at 54 mg/kg/day, po qd measured after 4 days by Giemsa staining based analysis relative to control; type: functional; parameters: scale not given: the % may be the effect or the level left; details: time 4 day
[38] = tested on: Plasmodium yoelii nigeriensis; experiment: Antiplasmodial activity against Plasmodium yoelii nigeriensis infected in po dosed mouse assessed as reduction in parasitemia; type: functional
Plasmodium falciparum [39] = experiment: Antimalarial activity against chloroquine resistant Plasmodium falciparum FcB1; type: functional, organism-based
Plasmodium falciparum [40] = experiment: Antiplasmodial activity against Plasmodium falciparum F-32; type: functional, organism-based
Plasmodium falciparum [41] = experiment: Antiplasmodial activity against Plasmodium falciparum FcM29; type: functional, organism-based
Plasmodium falciparum [42] = experiment: Antiplasmodial activity against Plasmodium falciparum Nigerian; type: functional, organism-based
Plasmodium vinckei [43] = experiment: Antimalarial activity against Plasmodium vinckei infected in ip dosed mouse assessed as reduction in parasitemia relative to control; type: functional; parameters: scale not given: the % may be the effect or the level left
Plasmodium vinckei [44] = experiment: Antimalarial activity against Plasmodium vinckei infected in po dosed mouse assessed as reduction in parasitemia relative to control; type: functional; parameters: scale not given: the % may be the effect or the level left
Plasmodium vinckei [45] = experiment: Antimalarial activity against Plasmodium vinckei infected in ip dosed mouse assessed as reduction in parasitemia; type: functional
Plasmodium vinckei [46] = experiment: Antimalarial activity against Plasmodium vinckei infected in po dosed mouse assessed as reduction in parasitemia; type: functional

Compound: CC1(C)COC(C2CCC(NC3CCC(Nc4ccnc5cc(Cl)ccc45)CC3)CC2)OO1 (stereo not drawn)
- IC50 (Plasmodium falciparum [1]): 0.024 µM
- IC50 (Plasmodium falciparum [2]): 0.012 µM
- IC50 (Plasmodium falciparum [3]): 0.015 µM
- IC50 (Plasmodium falciparum [4]): 0.015 µM
- IC50 (Plasmodium falciparum [5]): 0.01 µM
- IC50 (Plasmodium falciparum [6]): 0.007 µM
- IC50 (Plasmodium falciparum [7]): 0.013 µM
- ED100 (Plasmodium vinckei [8]): 30 mg/kg/day
- ED100 [9]: 32 mg/kg/day
- Activity (Plasmodium falciparum [10]): 77%
- Activity (Plasmodium falciparum [11]): 100%
- Activity (Plasmodium falciparum [12]): 96%
- IC50 (Plasmodium falciparum [13]): 0.0198 µM
- IC90 (Plasmodium falciparum [13]): 0.0293 µM
- IC99 (Plasmodium falciparum [13]): 0.0448 µM
- MIC (Plasmodium falciparum [13]): 0.0472 µM (≈ 0.0224 µg/mL)

Compound: C[C@H]1[C@H](OC(=O)CCC(=O)CCNc2ccnc3cc(Cl)ccc23)O[C@@H]2O[C@]3(C)CC[C@H]4[C@H](C)CC[C@@H]1[C@@]24OO3
- EC50 (Plasmodium falciparum [14]; read-out: EC50): 0.0045 µM
- EC50 (Plasmodium falciparum [15]): 0.0017 µM
- EC50 (Plasmodium falciparum [16]): 0.0023 µM
- Activity (Plasmodium berghei [17]): >99%
- Activity (Plasmodium berghei [18]): 95.2%
- survival at 0.035 mg/kg (Plasmodium berghei [19]): 80%

Compound: C[C@H]1[C@@H](OC(=O)CCC(=O)O)O[C@@H]2C[C@@]3(C)CC[C@H]4[C@H](C)CC[C@@H]1[C@@]24OO3.FC(F)(F)c1ccc2c(CC3CCCCN3)c3cccc(C(F)(F)F)c3nc2c1 (stereo not drawn)
- Ratio (Plasmodium falciparum [20]): 15
- Ratio (Plasmodium falciparum [21]): 280
- IC50 (Plasmodium falciparum [22]): 20 µM
- IC50 (Plasmodium falciparum [23]): 4600 µM

Compound: Cc1cn([C@H]2C[C@H](N=[N+]=[N-])[C@@H](CO[C@H]3OC4O[C@]5(C)CC[C@H]6[C@H](C)CC[C@@H]([C@H]3C)[C@@]46OO5)O2)c(=O)[nH]c1=O (stereo partly drawn)
- IC50 [24]: 2.86 µM

Compound: C[C@@H]1CC[C@H]2[C@@H](C)C(CCC(=O)Nc3ccc(F)cc3)O[C@@H]3O[C@]4(C)CC[C@@H]1[C@]32OO4 (stereo partly drawn)
- Activity (Plasmodium berghei [25]): 99%
- Activity (Plasmodium berghei [26]): 99.6%

Compound: CC(C)CN(NC(=O)C1CCC2(CC1)OOC1(OO2)C2CC3CC(C2)CC1C3)c1nc(C#N)ncc1Cl (stereo not drawn)
- IC50 (Plasmodium falciparum [27]): 0.0098 µM
- IC50 (Plasmodium falciparum [14]): 0.0098 µM
- IC50 [28]: 0.0034 µM

Compound: CCN(CC)CCCC(C)Nc1ccnc2cc(Cl)ccc12 (stereo not drawn) [CHLOROQUINE]
- IC90 (Plasmodium falciparum [27]): 0.0186 µM
- IC50 (HeLa): 8.54 µM
- IC50 (Hemozoin): 1.91 equiv
- CD50 [29]: 7 mg/kg/day
- CD90 [29]: 23 mg/kg/day
- ED50 [29]: 5 mg/kg/day
- ED90 [29]: 23 mg/kg/day
- ED100 (Plasmodium vinckei [8]): >100 mg/kg/day
- ED100 [9]: 16 mg/kg/day
- IC90 (Plasmodium falciparum [13]): 0.301 µM
- IC99 (Plasmodium falciparum [13]): 0.531 µM
- Activity (Plasmodium falciparum [30]): 100%
- Activity (Plasmodium falciparum [31]): 100%
- Activity (Plasmodium falciparum [32]): 15%
- IC90 (Plasmodium falciparum [33]): 0.153 µM

Compound: C[C@H]1[C@H](OC(=O)CCC(=O)O)O[C@@H]2O[C@@]3(C)CC[C@H]4[C@H](C)CC[C@@H]1[C@@]24OO3 [ARTESUNATE]
- IC50 (Plasmodium falciparum [34]): < 0.0052 µM
- IC50 (Plasmodium falciparum [22]): 300 µM
- ED100 (Plasmodium vinckei [8]): 100 mg/kg/day
- ED100 [9]: 32 mg/kg/day
- IC50 (Plasmodium falciparum [13]): 0.00234 µM
- IC90 (Plasmodium falciparum [13]): 0.00646 µM
- IC99 (Plasmodium falciparum [13]): 0.0195 µM
- Activity (Plasmodium falciparum [35]): 28%
- Activity (Plasmodium falciparum [36]): 89%
- Activity (Plasmodium falciparum [37]): 100%

Compound: CC(C)C1=C[C@H]2OC3(CCC(NCCNc4cc(Cl)cc5cccnc45)CC3)OO[C@@]2(C)CC1.O=C(O)CC(O)(CC(=O)O)C(=O)O.O=C(O)CC(O)(CC(=O)O)C(=O)O (stereo partly drawn)
- CD50 [38]: 22 mg/kg/day
- CD90 [38]: 44 mg/kg/day
- ED50 ([38]; Plasmodium yoelii): 15 mg/kg/day
- ED90 ([38]; Plasmodium yoelii): 23 mg/kg/day
- IC50 (Plasmodium falciparum [39]): 0.004 µM
- CD50 [29]: 3 mg/kg/day
- CD90 [29]: 12 mg/kg/day
- ED50 [29]: 2 mg/kg/day
- ED90 [29]: 5 mg/kg/day
- IC50 (Plasmodium falciparum [40]): 0.004 µM
- IC50 (Plasmodium falciparum [41]): 0.004 µM
- IC50 (Plasmodium falciparum [42]): 0.004 µM
- Activity (Plasmodium vinckei [43]): 50%
- Activity (Plasmodium vinckei [44]): 50%
- ED50 (Plasmodium vinckei [45]): 5 mg/kg/day
- ED50 (Plasmodium vinckei [46]): 18 mg/kg/day
